Literature values in PMC9851200, “Multiparameter phenotypic screening for endogenous TFEB and TFE3 translocation identifies novel chemical series modulating lysosome function” (Autophagy, 2022).

What was measured:
Design in all cases: method as in original PKIS2 published data
[1] = molecular target: kinases (KINOMEscan panel) (Homo sapiens, UniProt O96017); settings: kinase CHEK2; Published KINOMEscan; ref original PKIS2 published data; cited from earlier work
[2] = molecular target: kinases (KINOMEscan panel) (Homo sapiens, UniProt P57059); settings: kinase SIK1; Published KINOMEscan; ref original PKIS2 published data; cited from earlier work
[3] = molecular target: T1, kinases (KINOMEscan panel) (Homo sapiens, UniProt P78356); settings: PIP4K2B; Published KINOMEscan; ref original PKIS2 published data; cited from earlier work
T1 sequence (P78356 1-416): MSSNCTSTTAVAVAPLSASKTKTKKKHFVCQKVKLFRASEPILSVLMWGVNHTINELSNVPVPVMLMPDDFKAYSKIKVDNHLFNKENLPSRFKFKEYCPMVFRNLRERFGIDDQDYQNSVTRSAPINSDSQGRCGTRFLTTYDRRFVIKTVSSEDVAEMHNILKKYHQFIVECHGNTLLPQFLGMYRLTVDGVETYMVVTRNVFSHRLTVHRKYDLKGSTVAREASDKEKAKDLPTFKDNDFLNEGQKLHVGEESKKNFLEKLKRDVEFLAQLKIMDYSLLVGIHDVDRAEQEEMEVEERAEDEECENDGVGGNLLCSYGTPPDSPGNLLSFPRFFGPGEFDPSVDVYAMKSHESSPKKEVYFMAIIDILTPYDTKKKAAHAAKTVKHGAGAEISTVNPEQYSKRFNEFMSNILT

[4] = molecular target: kinases (KINOMEscan panel) (Homo sapiens, UniProt Q14012); settings: CAMK1; Published KINOMEscan; ref original PKIS2 published data; cited from earlier work
[5] = molecular target: kinases (KINOMEscan panel) (Homo sapiens, UniProt Q15569); settings: TESK1; Published KINOMEscan; ref original PKIS2 published data; cited from earlier work
[6] = molecular target: kinases (KINOMEscan panel) (Homo sapiens, UniProt Q96GD4); settings: kinase AURKB; Published KINOMEscan; ref original PKIS2 published data; cited from earlier work
[7] = molecular target: T2, kinases (KINOMEscan panel) (Homo sapiens, UniProt Q96PY6); settings: kinase NEK1; Published KINOMEscan; ref original PKIS2 published data; cited from earlier work
T2 sequence (Q96PY6 1-1258): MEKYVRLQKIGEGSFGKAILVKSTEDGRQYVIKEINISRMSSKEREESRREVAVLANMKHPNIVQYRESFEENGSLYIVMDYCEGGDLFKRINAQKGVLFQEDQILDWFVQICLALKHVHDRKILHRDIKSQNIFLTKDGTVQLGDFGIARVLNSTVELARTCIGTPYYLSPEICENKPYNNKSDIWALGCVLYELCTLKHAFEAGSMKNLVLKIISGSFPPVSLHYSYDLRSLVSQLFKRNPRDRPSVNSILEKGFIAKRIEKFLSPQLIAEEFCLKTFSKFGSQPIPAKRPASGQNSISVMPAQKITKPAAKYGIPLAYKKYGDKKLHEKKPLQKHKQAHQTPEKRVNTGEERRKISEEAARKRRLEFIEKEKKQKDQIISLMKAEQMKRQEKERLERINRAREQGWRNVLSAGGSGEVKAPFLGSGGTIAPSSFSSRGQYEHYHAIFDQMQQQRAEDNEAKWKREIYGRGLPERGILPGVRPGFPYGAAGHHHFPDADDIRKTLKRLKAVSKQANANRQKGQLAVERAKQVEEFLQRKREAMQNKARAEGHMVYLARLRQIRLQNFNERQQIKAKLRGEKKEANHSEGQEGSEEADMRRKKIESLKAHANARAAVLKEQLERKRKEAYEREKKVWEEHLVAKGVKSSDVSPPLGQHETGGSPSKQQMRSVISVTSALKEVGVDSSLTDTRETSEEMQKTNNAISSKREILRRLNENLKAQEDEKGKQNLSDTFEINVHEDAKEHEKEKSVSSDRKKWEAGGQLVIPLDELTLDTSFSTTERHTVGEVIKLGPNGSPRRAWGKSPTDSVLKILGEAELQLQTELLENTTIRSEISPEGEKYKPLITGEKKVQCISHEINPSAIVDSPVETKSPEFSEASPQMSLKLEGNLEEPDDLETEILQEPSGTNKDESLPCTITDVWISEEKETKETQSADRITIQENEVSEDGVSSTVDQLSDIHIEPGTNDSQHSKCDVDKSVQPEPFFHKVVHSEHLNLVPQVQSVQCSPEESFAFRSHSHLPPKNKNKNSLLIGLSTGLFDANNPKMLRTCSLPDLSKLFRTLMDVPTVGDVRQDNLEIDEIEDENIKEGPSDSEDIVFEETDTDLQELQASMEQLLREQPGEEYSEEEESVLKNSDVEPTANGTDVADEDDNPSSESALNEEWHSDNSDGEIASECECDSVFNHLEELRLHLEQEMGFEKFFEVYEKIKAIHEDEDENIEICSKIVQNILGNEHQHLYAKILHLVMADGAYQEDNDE

[8] = molecular target: kinases (KINOMEscan panel) (Homo sapiens, UniProt Q9NYY3); settings: PLK2; Published KINOMEscan; ref original PKIS2 published data; cited from earlier work
[9] = molecular target: kinases (KINOMEscan panel) (Homo sapiens, UniProt Q9Y463); settings: kinase DYRK1B; Published KINOMEscan; ref original PKIS2 published data; cited from earlier work
kinases (KINOMEscan panel) (Homo sapiens, UniProt Q9Y463), sequence (Q9Y463 whole entry): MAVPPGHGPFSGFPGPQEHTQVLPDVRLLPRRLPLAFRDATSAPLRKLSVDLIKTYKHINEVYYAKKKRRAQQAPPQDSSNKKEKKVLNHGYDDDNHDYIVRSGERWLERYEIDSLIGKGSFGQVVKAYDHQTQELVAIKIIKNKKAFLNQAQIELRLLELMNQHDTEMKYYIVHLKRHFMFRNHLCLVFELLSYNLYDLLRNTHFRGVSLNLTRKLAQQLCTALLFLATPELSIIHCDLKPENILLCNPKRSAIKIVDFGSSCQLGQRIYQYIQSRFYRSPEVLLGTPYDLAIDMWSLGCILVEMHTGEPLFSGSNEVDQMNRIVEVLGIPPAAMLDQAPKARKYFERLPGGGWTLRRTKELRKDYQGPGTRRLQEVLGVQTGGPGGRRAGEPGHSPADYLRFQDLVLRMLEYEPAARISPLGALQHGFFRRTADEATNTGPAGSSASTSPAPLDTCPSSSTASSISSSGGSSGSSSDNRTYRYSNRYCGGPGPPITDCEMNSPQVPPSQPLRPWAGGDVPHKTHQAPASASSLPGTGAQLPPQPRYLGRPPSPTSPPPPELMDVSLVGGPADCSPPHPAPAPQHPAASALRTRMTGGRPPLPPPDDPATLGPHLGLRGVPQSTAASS

kinases (KINOMEscan panel) (Homo sapiens, UniProt Q15569), sequence (Q15569 whole entry): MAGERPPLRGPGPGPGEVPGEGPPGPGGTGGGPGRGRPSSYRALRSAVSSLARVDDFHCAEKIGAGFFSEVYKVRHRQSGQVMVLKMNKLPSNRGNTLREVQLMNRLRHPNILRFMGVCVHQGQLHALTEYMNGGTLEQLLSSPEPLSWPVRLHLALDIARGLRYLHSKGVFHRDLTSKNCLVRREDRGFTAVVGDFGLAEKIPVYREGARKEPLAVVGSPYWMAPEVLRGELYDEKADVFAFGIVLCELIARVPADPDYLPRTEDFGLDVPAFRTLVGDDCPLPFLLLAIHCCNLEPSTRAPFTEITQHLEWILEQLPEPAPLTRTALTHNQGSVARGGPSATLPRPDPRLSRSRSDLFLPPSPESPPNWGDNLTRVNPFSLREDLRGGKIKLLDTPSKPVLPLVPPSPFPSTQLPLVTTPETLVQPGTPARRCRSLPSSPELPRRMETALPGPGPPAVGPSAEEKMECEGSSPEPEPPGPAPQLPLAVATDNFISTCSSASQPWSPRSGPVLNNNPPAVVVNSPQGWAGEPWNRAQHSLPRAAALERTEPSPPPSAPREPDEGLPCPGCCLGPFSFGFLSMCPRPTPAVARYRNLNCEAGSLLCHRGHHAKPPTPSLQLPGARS
kinases (KINOMEscan panel) (Homo sapiens, UniProt Q14012), sequence (Q14012 whole entry): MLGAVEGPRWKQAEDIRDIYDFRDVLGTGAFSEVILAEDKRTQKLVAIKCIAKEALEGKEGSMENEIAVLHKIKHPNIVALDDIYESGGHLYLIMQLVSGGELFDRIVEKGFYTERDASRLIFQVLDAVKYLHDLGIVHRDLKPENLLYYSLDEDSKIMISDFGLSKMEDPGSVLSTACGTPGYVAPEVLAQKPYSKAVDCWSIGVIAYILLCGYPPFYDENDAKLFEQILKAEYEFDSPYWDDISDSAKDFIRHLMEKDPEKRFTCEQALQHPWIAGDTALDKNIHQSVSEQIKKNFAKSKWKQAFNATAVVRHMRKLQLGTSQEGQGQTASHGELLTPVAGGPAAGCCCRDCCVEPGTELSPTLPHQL
kinases (KINOMEscan panel) (Homo sapiens, UniProt Q9NYY3), sequence (Q9NYY3 whole entry): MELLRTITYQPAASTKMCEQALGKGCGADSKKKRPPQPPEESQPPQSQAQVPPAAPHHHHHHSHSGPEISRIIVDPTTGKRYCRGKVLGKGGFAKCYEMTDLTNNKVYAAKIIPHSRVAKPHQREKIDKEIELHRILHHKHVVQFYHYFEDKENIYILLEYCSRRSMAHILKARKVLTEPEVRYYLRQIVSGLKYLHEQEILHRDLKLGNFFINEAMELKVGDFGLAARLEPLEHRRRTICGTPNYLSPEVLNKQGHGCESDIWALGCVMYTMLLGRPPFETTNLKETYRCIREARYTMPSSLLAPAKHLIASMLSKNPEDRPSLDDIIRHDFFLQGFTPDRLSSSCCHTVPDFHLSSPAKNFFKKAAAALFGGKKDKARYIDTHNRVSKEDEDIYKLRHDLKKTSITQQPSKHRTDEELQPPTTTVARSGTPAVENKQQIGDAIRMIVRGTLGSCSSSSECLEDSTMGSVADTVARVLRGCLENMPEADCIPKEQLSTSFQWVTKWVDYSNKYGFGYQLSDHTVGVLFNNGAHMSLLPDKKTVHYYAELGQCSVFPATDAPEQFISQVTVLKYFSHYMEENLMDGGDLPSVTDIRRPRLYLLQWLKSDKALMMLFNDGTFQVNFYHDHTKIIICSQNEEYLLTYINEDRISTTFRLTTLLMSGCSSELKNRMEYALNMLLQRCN
kinases (KINOMEscan panel) (Homo sapiens, UniProt P57059), sequence (P57059 whole entry): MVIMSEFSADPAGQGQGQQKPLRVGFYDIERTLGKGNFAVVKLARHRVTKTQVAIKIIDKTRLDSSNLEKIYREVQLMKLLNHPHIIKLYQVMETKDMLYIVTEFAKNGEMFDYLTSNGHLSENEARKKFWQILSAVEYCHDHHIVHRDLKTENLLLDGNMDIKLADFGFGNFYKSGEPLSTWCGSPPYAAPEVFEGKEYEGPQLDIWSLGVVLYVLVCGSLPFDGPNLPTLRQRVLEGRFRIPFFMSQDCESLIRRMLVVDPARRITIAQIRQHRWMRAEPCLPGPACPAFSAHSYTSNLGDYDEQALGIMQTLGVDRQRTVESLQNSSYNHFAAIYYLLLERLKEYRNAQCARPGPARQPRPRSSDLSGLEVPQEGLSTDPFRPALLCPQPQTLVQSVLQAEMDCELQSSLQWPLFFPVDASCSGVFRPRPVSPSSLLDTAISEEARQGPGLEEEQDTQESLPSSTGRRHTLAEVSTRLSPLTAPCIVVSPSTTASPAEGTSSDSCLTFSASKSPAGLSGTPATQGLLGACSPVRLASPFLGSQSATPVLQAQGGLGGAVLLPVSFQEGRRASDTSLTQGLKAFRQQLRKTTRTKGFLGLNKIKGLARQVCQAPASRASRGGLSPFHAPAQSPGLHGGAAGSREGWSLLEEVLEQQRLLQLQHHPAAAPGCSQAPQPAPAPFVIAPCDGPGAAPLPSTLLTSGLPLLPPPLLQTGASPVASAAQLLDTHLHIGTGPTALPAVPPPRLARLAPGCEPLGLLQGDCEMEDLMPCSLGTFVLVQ
kinases (KINOMEscan panel) (Homo sapiens, UniProt Q96GD4), sequence (Q96GD4 whole entry): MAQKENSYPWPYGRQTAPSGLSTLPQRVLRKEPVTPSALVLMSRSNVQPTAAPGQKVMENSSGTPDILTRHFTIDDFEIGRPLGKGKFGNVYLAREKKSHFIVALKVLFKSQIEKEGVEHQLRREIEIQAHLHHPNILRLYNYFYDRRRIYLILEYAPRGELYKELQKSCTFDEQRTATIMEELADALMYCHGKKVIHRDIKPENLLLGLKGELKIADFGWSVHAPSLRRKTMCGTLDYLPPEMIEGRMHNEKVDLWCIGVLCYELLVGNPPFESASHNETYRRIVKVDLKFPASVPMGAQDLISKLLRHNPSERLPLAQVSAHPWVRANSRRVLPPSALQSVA
kinases (KINOMEscan panel) (Homo sapiens, UniProt O96017), sequence (O96017 whole entry): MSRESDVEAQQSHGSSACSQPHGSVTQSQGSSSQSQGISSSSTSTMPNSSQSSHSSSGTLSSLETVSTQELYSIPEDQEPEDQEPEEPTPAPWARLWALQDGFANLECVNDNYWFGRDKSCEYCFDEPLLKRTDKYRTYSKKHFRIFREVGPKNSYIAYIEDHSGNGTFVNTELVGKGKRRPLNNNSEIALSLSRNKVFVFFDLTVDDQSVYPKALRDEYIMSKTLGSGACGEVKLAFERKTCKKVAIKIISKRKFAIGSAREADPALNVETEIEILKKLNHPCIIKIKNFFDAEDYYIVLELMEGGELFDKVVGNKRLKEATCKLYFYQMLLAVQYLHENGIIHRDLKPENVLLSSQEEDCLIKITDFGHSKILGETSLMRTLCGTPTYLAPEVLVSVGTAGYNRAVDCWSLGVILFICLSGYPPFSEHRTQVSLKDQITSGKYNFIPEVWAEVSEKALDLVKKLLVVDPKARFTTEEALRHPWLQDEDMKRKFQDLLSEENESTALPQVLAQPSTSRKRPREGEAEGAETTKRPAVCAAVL

Cc1cccc(-c2nc(Nc3ccncc3)c3ccccc3n2)n1 [NK215]
KINOMEscan CHEK2 [1]: 0 | KINOMEscan SIK1 [2]: 4 | KINOMEscan PIP4K2B [3]: 0 | KINOMEscan CAMK1 [4]: 0 | KINOMEscan TESK1 [5]: 14 | KINOMEscan AURKB [6]: 10 | KINOMEscan NEK1 [7]: 0 | KINOMEscan PLK2 [8]: 0 | KINOMEscan DYRK1B [9]: 27
